Source: patent US20250027041A1, “COMPOSITION FOR INDUCING TRANSDIFFERENTIATION AND STEM CELLS TREATED THEREWITH” (YJ CERAPEUTICS INC., priority 2021, published 2025)

Columns and labels:
AD-MSC = assay: Tuj1 immunochemical assay, AD-MSC; assay type: cell-based, human; conditions: 10, 20 or 30 μM, 5 days
Procedure: To determine whether transdifferentiation into ciNSC5, neural progenitor cells, occurred similarly even in MSCs of different origins when human UCB-MSCs were treated with YJ101, YJ102, or YJ103 for 5 days, the expression of neuronal markers in differentiated ciNSC5 was confirmed by immunochemical assay using MSCs from human adipose-derived mesenchymal stem cells (AD-MSCs), human bone marrow-derived mesenchymal stem cells ([…]) and human umbilical cord blood-derived mesenchymal stem cells (UCB-MSCs; Promo Cells). Specifically, AD-MSC (StemPro™ Human Adipose-Derived Stem Cell, Gibco, Passage #6) was incubated in a MesenPRO RS™ medium, BM-MSC (ATCC, Passage #6) was incubated in a Mesenchymal Stem Cell Basal Medium for Adipose, Umbilical and Bone Marrow-derived MSC (Cat. PCS-500-030, ATCC) medium, and UCB-MSC (Promo Cell, Passage #6) was incubated in a CellCor™ CD MSC (Cat. YSP001, Xell Therapeutics) medium, and then dispensed at 2.1×10^4 cells/well in a 12-well plate with an 18 mm cover glass (circular) (DMSO control group was dispensed at 3.5×10^3 cells/well). […] The culture medium was removed, washed with PBS, and then fixed with 4% paraformaldehyde at room temperature for 10 minutes. After washed three times with PBS, the cells were permeabilized with PBS-T containing 0.5% Triton X-100 for 10 minutes, washed with PBS-T three times for 10 minutes each, and then blocked with a blocking solution (PBS-T containing 5% BSA and 5% goat serum) for 1 hour. Thereafter, the cells were treated with anti-Tuj1 antibody (Cat. 801201, BioLegend) diluted 1/5000 in a blocking solution and incubated at 4° C. overnight. The next day, the cells were washed 10 times for 10 minutes each with PBS-T, and then treated with anti-mouse IgG-cy3 diluted 1/2000 in a blocking solution, and incubated for 1 hour in dark conditions. Next, the cells were washed 10 times for 10 minutes each with PBS-T, mounted with a mounting solution containing DAPI, and then observed with a confocal microscope.

[1] = test system: HES1, Sox2 and OCT4 gene promoters (CtBP1, CtBP1-LSD1 complex); assay: ChIP assay, target genes of CtBP1-YJ102; assay type: cell-based, human; conditions: YJ102, 2 days, UCB-MSC
Procedure: To identify a target gene of CtBP1-YJ102 in human UCB-MSC, chromatin immunoprecipitation (ChIP) assay was performed. Specifically, 2×10^6 human UCB-MSCs were dispensed into a 100 mm culture dish, treated with 10 μl of YJ102 (30 mM) or DMSO (control) the next day, and incubated for 2 days. For cross-linking and DNA sharing, the cells were added with formaldehyde to be 1% to the culture dish in which UCB-MSCs were incubated and incubated at 37° C. for 10 minutes to be fixed. The culture medium was removed and washed twice with PBS containing a protease inhibitor to collect the cells. The cells were centrifuged at 3000 rpm at 4° C. for 5 minutes to remove the supernatant, and the cells were added with an SDS lysis buffer containing a protease inhibitor, incubated on ice for 10 minutes, and lysed by ultrasound. The cells were centrifuged at 13,000 rpm at 4° C. for 10 minutes, the supernatant was transferred to a new microcentrifuge tube, and added with 1/10 volume of ChIP Dilution Buffer. Thereafter, DNA was purified and subjected to agarose gel electrophoresis to confirm that the DNA was shared at 200 to 1000 bp. In addition, for chromatin immunoprecipitation, the Protein G agarose slurry was washed with PBS, blocked with 1 ml of 1% BSA, and then washed with PBS, added with a cell lysate lysed by ultrasound and primary antibodies included anti-CtBP1 antibody (Cat. 07-306, Millipore), anti-LSD1 antibody (Cat. A1156, Abclonal), and Normal rabbit IgG (Cat. 12-370, Merck Millipore) (control group) at 1 μg each, and then incubated using a rotator overnight at 4° C. The next day, the supernatant was removed by centrifugation, and DNA-antibody-agarose beads were washed once with Low Salt Immune Complex Wash Buffer; High Salt Immune Complex Wash Buffer; and LiCl Immune Complex Wash Buffer in sequence, and then washed twice with 1×TE. The DNA-antibody-agarose beads were added with 250 μl of elution buffer (1% SDS, 0.1M NaHCO3), incubated at room temperature for 15 minutes using a rotator, and centrifuged, and the supernatant was transferred to a new microcentrifuge tube. The elution process was repeated one more time and the eluate was mixed. The eluate was added with 20 μl of 5 M NaCl, heated at 65° C. for 4 hours, and then added with 10 μl of 0.5 M EDTA, 20 μl of 1 M Tris-HCl (pH 6.5), and 2 μl of proteinase K (10 mg/ml) and incubated at 45° C. for 1 hour. Phenol/chloroform extraction and ethanol precipitation were performed, the DNA pellet was resuspended in DW, and then real-time quantitative PCR was performed using primers shown in Table 2 below.

Q: With `CCc1ccc(N(C(=O)COC)c2nc3cc(Cl)ccc3o2)cc1` [YJ102] as the molecule, how does the “expression of Tuj1” value (AD-MSC) read?
A: increased

Q: And the “CtBP1-LSD1 complex binding to Sox2 gene promoter” value [1]?
A: bound to a Sox2 gene promoter

Q: And the “CtBP1 binding to HES1 gene promoter” value [1]?
A: increased

Q: And the HES1 expression [1]?
A: decrease HES1 expression

Q: What about the OCT4 expression [1] of the same molecule?
A: induce the expression of OCT4

Q: What about the Sox2 expression [1] of the same molecule?
A: increase Sox2 expression

Q: And the “amount of CtBP1-LSD1 complex binding to OCT4 gene promoter” value [1]?
A: increased
